Laboratory results from PMC10229426, “An optimized bioluminescent substrate for non-invasive imaging in the brain” (Nature Chemical Biology, 2023).
Several values for one entry are separate records, joined by “and”; a condition that tells them apart may be missing. Equal values may be shown once. Entries after “also recorded” stand apart in the source; their conditions may differ. Read-outs that look alike come from different tables or passages of the source.

Assays:
[1] = target: Antares (Oplophorus gracilirostris, UniProt Q9GV45, A31E/A60N/A81I/F95D/I117V/K70R/L54V/L99Q/M102K/N193R/P142E/Q151K/Q38R/Q45L/V71I/Y165I); assay: Comparison of bioluminescence in luciferase-transduced (AAV) mouse brain hippocampus; assay type: in vivo, J:NU mice; set-up: P2A-mNeonGreen (self-cleaving; mNeonGreen is separated and a P2A remnant stays on Antares) (C); expressed in transfected cells; host or cells: hippocampus of J:NU mice transduced with AAV.DJ
Source text: For AAV packaging, pAAV-CMV-AkaLuc-P2A-mNeonGreen-WPRE plasmid and pAAV-CMV-Antares-P2A-mNeonGreen-WPRE were amplified and purified by a PureLink Expi endotoxin-free maxi plasmid purification kit (Invitrogen) and were sent to Stanford Gene Vector and Virus Core to produce and titer AAV.DJ vectors. Under sterile conditions, 12-week-old male J:NU mice (Jackson Laboratory, 007850) were anesthetized with isoflurane and secured in a stereotaxic frame (RWD Life Science), and a hole the size of the needle was drilled through the skull. A Hamilton syringe with a 33-gauge needle was inserted at anteroposterior −2.2 mm, mediolateral +1.7 mm and dorsoventral −1.7 mm. […] The needle was left in place for 3 min after each injection to minimize upward flow of viral solution. Two to 3 weeks after AAV infection, mice were injected i.p. with the indicated amount of CFz, Akalumine or FFz and imaged on the Ami HT (binning of 1 × 1 and exposure time of 10 s).

[2] = Toxicity in mice: necropsy and histopathology; assay type: in vivo, C57BL/6 mice; set-up: key: 0: absent; 1: minimal; 2: mild; 3: moderate; 4: severe; conditions: individual mice
Protocol: (§1) Male C57BL/6 mice of 2 months of age were killed by CO2 asphyxiation and cardiac exsanguination. All mice were weighed, and a complete gross examination of the external and internal organs was performed. […] Formalin-fixed tissues were processed routinely, embedded in paraffin, sectioned at 5 μm and stained with hematoxylin and eosin. All slides were blindly evaluated for histologic treatment-related effects (Supplementary Table 1) by a board-certified veterinary pathologist.

[3] = Toxicity in mice: necropsy and histopathology; assay type: in vivo, C57BL/6 mice; set-up: key to BMH, brain multifocal hemorrhage score / HN, hepatocellular necrosis score / RTD, renal tubular dilation score / RTDR, renal tubular degeneration and regeneration score: 0: absent; 1: minimal; 2: mild; 3: moderate; 4: severe; key to HMNH, heart myocardial necrosis and hemorrhage score: 0: no lesions; 1: <5% of myocardium affected; 2: 5-10% affected; 3: 10-25% affected; 4: >25% affected; key to SRPHMV, splenic red pulp histiocytosis with microvesicular vacuolation score: 0: no lesions; 1: lesions present; key to LC, Liver capsule score: 0: normal; 1: segmental subcapsular necrosis +/- neutrophilic infiltrate; Total organ score: scale not given here; conditions: for toxicity after a single i.p. injection: 4.2 µmol with 20 mg P-407, one injection; for BMH, brain multifocal hemorrhage score / HMNH, heart myocardial necrosis and hemorrhage score / HN, hepatocellular necrosis score / LC, Liver capsule score / RTD, renal tubular dilation score / RTDR, renal tubular degeneration and regeneration score / SRPHMV, splenic red pulp histiocytosis with microvesicular vacuolation score / Total organ score / ∆ weight: individual mice
Protocol: as §1

[4] = set-up: method as in doi:10.1134/S1068162018020085; conditions: cited from earlier work

Chain of Antares (Q9GV45 other isoform, or with tags, fused parts or gaps with the stated changes): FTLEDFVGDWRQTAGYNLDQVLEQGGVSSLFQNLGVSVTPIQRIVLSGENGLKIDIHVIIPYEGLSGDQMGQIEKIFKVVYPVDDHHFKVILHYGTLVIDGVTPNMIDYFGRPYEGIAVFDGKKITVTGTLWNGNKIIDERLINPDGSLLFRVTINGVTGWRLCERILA

## O=c1c(Cc2ccco2)nc2c(Cc3ccccc3)[nH]c(-c3cccc(F)c3F)cn1-2 [compound 6, cephalofurimazine]
[1]; 1.3 µmol CFz i.p., Antares and AkaLuc AAV co-infected hippocampus
  peak signal relative to 3.0 µmol of AkaLumine: comparable peak signal
[1]; CFz dose 3 µmol i.p., Antares and AkaLuc AAV co-infected hippocampus, listed as CFz
  brightness relative to 3 µmol of AkaLumine: threefold more signal; also recorded: about threefold higher
[1]; i.p., Antares AAV in hippocampus
  brightness relative to FFz: brighter than FFz by at least an order of magnitude
[2]; 1 day, 4.2 µmol, 20 mg P-407
  HPMC, heart perivascular myxomatous change score: 0
  HT, heart telangiectasia score: 0
  KCHMV, Kupffer cell hyperplasia and microvesicular vacuolation score: 0
[2]; 3 days, 1.3 µmol, 12 mg P-407
  HPMC, heart perivascular myxomatous change score: 0
  HT, heart telangiectasia score: 0
  KCHMV, Kupffer cell hyperplasia and microvesicular vacuolation score: 0
[2]; 3 days, 4.2 µmol, 20 mg P-407
  HPMC, heart perivascular myxomatous change score: 0
[2]; 5 days, 1.3 µmol, 12 mg P-407
  HPMC, heart perivascular myxomatous change score: 0
  HT, heart telangiectasia score: 0
[3]; 1.3 µmol CFz with 12 mg P-407, daily for 3 or 5 d
  weight loss: < 5%
[3]; 1.3 µmol CFz with 12 mg P-407, daily i.p. for 3 or 5 d, listed as CFz
  effects on organ tissues after daily administration: mild and well tolerated and Renal lesions were minimal to absent
[3]; 4.2 µmol CFz with 20 mg P-407
  toxicity after three daily i.p. injections: noticeably toxic to organs
[3]
  toxicity after a single i.p. injection: minimal effects on heart and kidney tissues without weight loss
[3]; listed as CFz
  toxicity after a single i.p. injection: minimal toxicity
[3]; 1 day, 4.2 µmol, 20 mg P-407
  BMH, brain multifocal hemorrhage score: 0
  HMNH, heart myocardial necrosis and hemorrhage score: 1 (<5% of myocardium affected) and 0 (2×)
  HN, hepatocellular necrosis score: 0
  LC, Liver capsule score: 0
  RTD, renal tubular dilation score: 0 and 1 (<5% of tubules affected) (2×)
  RTDR, renal tubular degeneration and regeneration score: 0 (2×) and 1 (<5% of tubules affected)
  SRPHMV, splenic red pulp histiocytosis with microvesicular vacuolation score: 0
  Total organ score: 2 (2×) and 1
  ∆ weight: –0.7% and +0.3% and +1.4%
[3]; 3 days, 1.3 µmol, 12 mg P-407
  BMH, brain multifocal hemorrhage score: 0
  HMNH, heart myocardial necrosis and hemorrhage score: 1 (<5% of myocardium affected)
  HN, hepatocellular necrosis score: 0 (2×) and 2
  LC, Liver capsule score: 0
  RTD, renal tubular dilation score: 1 (<5% of tubules affected) (2×) and 0
  RTDR, renal tubular degeneration and regeneration score: 1 (<5% of tubules affected)
  SRPHMV, splenic red pulp histiocytosis with microvesicular vacuolation score: 0
  Total organ score: 3 and 2 and 5
  ∆ weight: –2.2%; also recorded: –0.4%; also recorded: –1.1%
[3]; 3 days, 4.2 µmol, 20 mg P-407
  BMH, brain multifocal hemorrhage score: 0
  HMNH, heart myocardial necrosis and hemorrhage score: 2 (5-10% affected) (2×) and 1 (<5% of myocardium affected)
  HN, hepatocellular necrosis score: 0
  LC, Liver capsule score: 0
  RTD, renal tubular dilation score: 3 (25%–50% of tubules affected) (2×) and 2 (5%–25% of tubules affected)
  RTDR, renal tubular degeneration and regeneration score: 3 (25%–50% of tubules affected) and 2 (5%–25% of tubules affected) (2×)
  SRPHMV, splenic red pulp histiocytosis with microvesicular vacuolation score: 1
  Total organ score: 9 (2×) and 6
  ∆ weight: –8.3%; also recorded: –3.7%; also recorded: –3.0%
[3]; 5 days, 1.3 µmol, 12 mg P-407
  BMH, brain multifocal hemorrhage score: 0
  HMNH, heart myocardial necrosis and hemorrhage score: 0 (2×) and 1 (<5% of myocardium affected)
  HN, hepatocellular necrosis score: 0
  LC, Liver capsule score: 0
  RTD, renal tubular dilation score: 0
  RTDR, renal tubular degeneration and regeneration score: 1 (<5% of tubules affected) (2×) and 0
  SRPHMV, splenic red pulp histiocytosis with microvesicular vacuolation score: 1
  Total organ score: 1 (2×) and 3
  ∆ weight: –3.2%; also recorded: –4.6%; also recorded: –1.8%

## O=c1c(Cc2ccco2)nc2c(Cc3ccccc3)[nH]c(-c3ccccc3)cn1-2 [Fz, furimazine, reference compound]
[4]; 20 µg i.v. per day
  toxicity of daily i.v. injection: minimal toxicity
[4]; 60 µg (0.16 µmol) i.v. daily for 7 d
  toxicity of daily i.v. injection: caused liver and lung damage
